{"source": "paper PMC10726358", "about": "(Journal of Medicinal Chemistry, 2023)", "key": {"ATAD2A": {"biological_target": "T1, ATAD2A (Homo sapiens, UniProt Q6PL18)", "T1 construct": "≥2000-fold selectivity over all 20 non-BET bromodomains tested; purchased DiscoverX", "assay": "BROMOscan ATAD2A", "format": "binding", "method": "(§1) The BRD4 BD1/BD2 TR-FRET assay had been used routinely for this optimization work, and in order to better understand the BET BD1 domain selectivity profile, 31 was tested in TR-FRET BRD2, BRD3, and BRDT assays.\n(§2) [52] BROMOscan recombinant protein binding assays were carried out at DiscoverX. (accessed April 4, 2023)."}, "K1": {"tested_on": "K1", "assay": "Cross screening: K1 Agonist", "format": "biochemical"}, "non-BET bromodomains": {"tested_on": "non-BET bromodomains", "assay": "BROMOscan non-BET bromodomain panel", "format": "binding, human", "method": "as §1, §2"}, "BRPF1": {"biological_target": "T2, BRPF1 (Homo sapiens, UniProt P55201)", "T2 construct": "≥2000-fold selectivity over all 20 non-BET bromodomains tested; purchased DiscoverX", "assay": "BROMOscan BRPF1", "format": "binding", "method": "as §1, §2"}, "OPRK1": {"biological_target": "T3, OPRK1 (Homo sapiens, UniProt P41145)", "T3 construct": "purchased GSK enhanced cross-screening panel (in-house)", "assay": "Cross screening: OPRK1 Agonist", "format": "biochemical"}, "PI3K-gamma": {"biological_target": "T4, PI3K-gamma (Homo sapiens, UniProt P48736)", "T4 construct": "purchased GSK enhanced cross-screening panel (in-house)", "assay": "Cross screening: PI3K-gamma inhibitor", "format": "biochemical"}, "5-HT1B": {"biological_target": "T5, 5-HT1B (Homo sapiens, UniProt P28222)", "T5 construct": "purchased GSK enhanced cross-screening panel (in-house)", "assay": "Cross screening: 5-HT1B Agonist", "format": "biochemical"}, "BRD2 BD1": {"biological_target": "BRD2 BD1 (Homo sapiens, UniProt P25440)", "sequence (P25440 74-180 limits assumed)": "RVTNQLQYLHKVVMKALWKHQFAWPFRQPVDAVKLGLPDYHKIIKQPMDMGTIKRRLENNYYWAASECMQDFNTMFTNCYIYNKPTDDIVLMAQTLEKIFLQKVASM", "assay": "BROMOscan BRD2 BD1", "format": "binding", "method": "as §1, §2"}, "Adenosine A2a": {"biological_target": "T6, Adenosine A2a (Homo sapiens, UniProt P29274)", "T6 construct": "purchased GSK enhanced cross-screening panel (in-house)", "assay": "Cross screening: Adenosine A2a Human Agonist", "format": "biochemical"}, "Dopamine 2 (D2)": {"biological_target": "T7, Dopamine 2 (D2) (Homo sapiens, UniProt P14416)", "T7 construct": "purchased GSK enhanced cross-screening panel (in-house)", "assay": "Cross screening: Dopamine 2 (D2) Antagonist", "format": "biochemical"}, "[1]": {"tested_on": "12 multiplex human primary-cell-based assays", "assay": "BioMAP Diversity PLUS platform", "method": "The X-axis lists the quantitative protein-based biomarker readouts measured in each system. The Y-axis represents a log-transformed ratio of the biomarker readouts for the drug-treated sample (n = 1) over vehicle controls (n ≥ 6). […] Biomarker key activities are described as modulated if these activities increase in some systems but decrease in others.\n31 was added 1 h before stimulation of the cells and was present during the entire incubation period of the assays."}, "CAD aqueous solubility": {"assay": "CAD aqueous solubility", "method": "To understand cellular target engagement, 21 was tested in an LPS-stimulated hWB assay measuring inhibition of the inflammatory mediator MCP-1 secretion.\n(§3) ChromatographicLogD at pH 7.4, artificial membrane permeability, CLND solubility, and CAD solubility were measured using published protocols.[55]"}, "GR": {"biological_target": "T8, GR (Homo sapiens, UniProt P04150)", "T8 construct": "purchased GSK enhanced cross-screening panel (in-house)", "assay": "Cross screening: GR Agonist", "format": "biochemical"}, "MRGPRX2": {"biological_target": "T9, MRGPRX2 (Homo sapiens, UniProt Q96LB1)", "T9 construct": "purchased GSK enhanced cross-screening panel (in-house)", "assay": "Cross screening: MRGPRX2 Agonist", "format": "biochemical"}, "BRD4 BD2": {"biological_target": "T10, BRD4 BD2 (Homo sapiens, UniProt O60885)", "T10 construct": "BRD4 BD2; purchased DiscoverX", "assay": "BROMOscan BRD4 BD2", "format": "binding", "method": "as §1, §2"}, "Alpha 1B": {"biological_target": "T11, Alpha 1B (Homo sapiens, UniProt P35368)", "T11 construct": "purchased GSK enhanced cross-screening panel (in-house)", "assay": "Cross screening: Alpha 1B antagonist", "format": "biochemical"}, "V1a": {"biological_target": "T12, V1a (Homo sapiens, UniProt P37288)", "T12 construct": "purchased GSK enhanced cross-screening panel (in-house)", "assay": "Cross screening: V1a antagonist", "format": "biochemical"}, "hERG": {"biological_target": "hERG (Homo sapiens, UniProt Q12809)", "sequence (Q12809 whole entry)": "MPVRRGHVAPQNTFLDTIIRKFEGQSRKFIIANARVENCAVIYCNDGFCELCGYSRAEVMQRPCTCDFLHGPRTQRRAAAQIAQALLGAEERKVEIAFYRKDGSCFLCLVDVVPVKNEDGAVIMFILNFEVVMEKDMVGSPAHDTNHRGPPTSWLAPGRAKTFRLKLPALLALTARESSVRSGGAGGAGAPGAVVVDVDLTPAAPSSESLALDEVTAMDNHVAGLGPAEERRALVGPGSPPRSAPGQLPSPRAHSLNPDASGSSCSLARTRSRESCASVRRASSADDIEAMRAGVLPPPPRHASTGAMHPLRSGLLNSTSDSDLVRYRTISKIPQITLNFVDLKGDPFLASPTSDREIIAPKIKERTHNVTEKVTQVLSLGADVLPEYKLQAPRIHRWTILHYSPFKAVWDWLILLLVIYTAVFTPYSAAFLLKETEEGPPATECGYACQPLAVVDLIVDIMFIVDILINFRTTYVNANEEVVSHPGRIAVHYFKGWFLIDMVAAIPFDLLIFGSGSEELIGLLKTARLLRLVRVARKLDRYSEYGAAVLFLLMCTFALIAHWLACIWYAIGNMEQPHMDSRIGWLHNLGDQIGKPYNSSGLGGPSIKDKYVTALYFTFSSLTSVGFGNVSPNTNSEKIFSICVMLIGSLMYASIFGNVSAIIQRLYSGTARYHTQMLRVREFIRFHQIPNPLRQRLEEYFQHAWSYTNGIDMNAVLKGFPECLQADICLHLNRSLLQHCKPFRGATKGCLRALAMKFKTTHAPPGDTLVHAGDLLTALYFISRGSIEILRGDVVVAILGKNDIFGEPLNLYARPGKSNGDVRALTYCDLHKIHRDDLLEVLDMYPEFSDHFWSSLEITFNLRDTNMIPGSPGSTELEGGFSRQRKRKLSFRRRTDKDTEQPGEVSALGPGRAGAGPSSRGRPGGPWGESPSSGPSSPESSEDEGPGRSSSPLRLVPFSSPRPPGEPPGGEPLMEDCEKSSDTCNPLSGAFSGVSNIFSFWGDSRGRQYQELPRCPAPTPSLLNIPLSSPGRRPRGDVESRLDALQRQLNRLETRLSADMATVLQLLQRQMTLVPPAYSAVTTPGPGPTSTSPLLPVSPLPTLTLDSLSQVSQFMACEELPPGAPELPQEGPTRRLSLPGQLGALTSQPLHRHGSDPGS", "assay": "Cross screening: hERG blocker"}, "5-HT2B": {"biological_target": "T13, 5-HT2B (Homo sapiens, UniProt P41595)", "T13 construct": "purchased GSK enhanced cross-screening panel (in-house)", "assay": "Cross screening: 5-HT2B Agonist", "format": "biochemical"}, "PXR": {"biological_target": "PXR (Homo sapiens, UniProt O75469)", "sequence (O75469 whole entry)": "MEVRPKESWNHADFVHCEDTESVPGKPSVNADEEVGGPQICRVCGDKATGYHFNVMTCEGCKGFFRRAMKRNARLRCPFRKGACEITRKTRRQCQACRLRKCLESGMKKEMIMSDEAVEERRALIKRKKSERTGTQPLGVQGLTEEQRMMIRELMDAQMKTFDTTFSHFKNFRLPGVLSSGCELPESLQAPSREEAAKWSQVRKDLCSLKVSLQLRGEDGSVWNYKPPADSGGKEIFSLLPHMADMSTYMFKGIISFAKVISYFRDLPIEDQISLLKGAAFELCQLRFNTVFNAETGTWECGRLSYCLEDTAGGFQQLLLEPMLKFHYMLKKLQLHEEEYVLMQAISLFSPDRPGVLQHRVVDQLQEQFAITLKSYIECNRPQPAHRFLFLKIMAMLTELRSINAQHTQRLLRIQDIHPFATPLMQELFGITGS", "assay": "Cross screening: PXR Human Agonist"}, "5-HT2A [2]": {"biological_target": "T14, 5-HT2A (Homo sapiens, UniProt P28223)", "T14 construct": "purchased GSK enhanced cross-screening panel (in-house)", "T14 sequence (P28223 whole entry)": "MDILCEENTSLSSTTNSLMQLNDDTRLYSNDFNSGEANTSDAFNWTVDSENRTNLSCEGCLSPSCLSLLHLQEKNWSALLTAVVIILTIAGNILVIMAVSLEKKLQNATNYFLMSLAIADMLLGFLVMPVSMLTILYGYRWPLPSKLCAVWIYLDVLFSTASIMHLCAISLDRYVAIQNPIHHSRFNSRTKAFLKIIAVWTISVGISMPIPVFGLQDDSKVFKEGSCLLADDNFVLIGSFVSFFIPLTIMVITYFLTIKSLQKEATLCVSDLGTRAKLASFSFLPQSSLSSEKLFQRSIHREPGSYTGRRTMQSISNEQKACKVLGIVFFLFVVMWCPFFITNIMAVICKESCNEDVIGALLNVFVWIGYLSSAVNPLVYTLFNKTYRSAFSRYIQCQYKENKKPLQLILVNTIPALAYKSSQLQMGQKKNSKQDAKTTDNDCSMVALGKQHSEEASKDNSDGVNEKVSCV", "assay": "Cross screening: 5-HT2A Agonist", "format": "biochemical"}, "PBRM1 BD2": {"biological_target": "T15, PBRM1 BD2 (Homo sapiens, UniProt Q86U86)", "T15 construct": "PBRM1 BD2; purchased DiscoverX", "T15 sequence (Q86U86 177-287 limits assumed)": "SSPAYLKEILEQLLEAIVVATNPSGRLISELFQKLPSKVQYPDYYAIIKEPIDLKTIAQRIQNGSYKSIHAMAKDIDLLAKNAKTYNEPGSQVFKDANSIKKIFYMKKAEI", "assay": "BROMOscan PBRM1 BD2", "format": "binding", "method": "as §1, §2"}, "CECR2": {"biological_target": "T16, CECR2 (Homo sapiens, UniProt Q9BXF3)", "T16 construct": "≥2000-fold selectivity over all 20 non-BET bromodomains tested; purchased DiscoverX", "assay": "BROMOscan CECR2", "format": "binding", "method": "as §1, §2"}, "BRD3 BD1 [3]": {"biological_target": "T17, BRD3 BD1 (Homo sapiens, UniProt Q15059)", "T17 construct": "BRD3 BD1; purchased DiscoverX", "T17 sequence (Q15059 34-140 limits assumed)": "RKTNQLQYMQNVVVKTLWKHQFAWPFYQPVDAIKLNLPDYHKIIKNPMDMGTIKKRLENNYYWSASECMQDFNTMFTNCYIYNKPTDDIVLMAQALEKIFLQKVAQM", "assay": "BROMOscan BRD3 BD1", "format": "binding", "method": "as §1, §2"}, "M2 (CHRM2)": {"biological_target": "T18, M2 (CHRM2) (Homo sapiens, UniProt P08172)", "T18 construct": "purchased GSK enhanced cross-screening panel (in-house)", "T18 sequence (P08172 whole entry)": "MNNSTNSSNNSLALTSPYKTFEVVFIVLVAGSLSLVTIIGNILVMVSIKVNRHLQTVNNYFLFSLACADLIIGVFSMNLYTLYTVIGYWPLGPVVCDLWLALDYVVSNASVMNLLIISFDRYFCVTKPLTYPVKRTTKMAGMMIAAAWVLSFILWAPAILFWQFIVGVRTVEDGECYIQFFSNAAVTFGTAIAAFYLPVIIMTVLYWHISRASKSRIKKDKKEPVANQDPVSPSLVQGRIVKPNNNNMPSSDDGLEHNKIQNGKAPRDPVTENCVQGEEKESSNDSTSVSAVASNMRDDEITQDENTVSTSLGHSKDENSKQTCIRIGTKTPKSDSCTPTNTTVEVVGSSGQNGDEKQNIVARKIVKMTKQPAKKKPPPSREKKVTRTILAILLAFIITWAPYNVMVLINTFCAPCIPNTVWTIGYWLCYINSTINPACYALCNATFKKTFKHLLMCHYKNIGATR", "assay": "Cross screening: M2 (CHRM2) antagonist", "format": "biochemical"}, "Beta2 Adrenoceptor": {"biological_target": "T19, Beta2 Adrenoceptor (Homo sapiens, UniProt P07550)", "T19 construct": "purchased GSK enhanced cross-screening panel (in-house)", "assay": "Cross screening: Beta2 Adrenoceptor Antagonist", "format": "biochemical"}, "FALZ": {"biological_target": "T20, FALZ (Homo sapiens, UniProt Q12830)", "T20 construct": "≥2000-fold selectivity over all 20 non-BET bromodomains tested; purchased DiscoverX", "assay": "BROMOscan FALZ", "format": "binding", "method": "as §1, §2"}, "[4]": {"biological_target": "T21, Aryl Hydrocarbon Receptor (Homo sapiens, UniProt P35869)", "T21 construct": "purchased GSK enhanced cross-screening panel (in-house)", "assay": "Cross screening: Aryl Hydrocarbon Receptor", "format": "biochemical"}, "BRD8 BD1": {"biological_target": "T22, BRD8 BD1 (Homo sapiens, UniProt Q9H0E9)", "T22 construct": "BRD8 BD1; purchased DiscoverX", "T22 sequence (Q9H0E9 706-811 limits assumed)": "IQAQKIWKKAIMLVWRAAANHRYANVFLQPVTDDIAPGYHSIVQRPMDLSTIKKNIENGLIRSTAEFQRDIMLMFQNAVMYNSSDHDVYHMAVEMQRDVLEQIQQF", "assay": "BROMOscan BRD8 BD1", "format": "binding", "method": "as §1, §2"}, "BRD3 BD1 [5]": {"biological_target": "T17, BRD3 BD1", "assay": "BRD3 BD1 TR-FRET assay", "format": "binding", "method": "as §1\n(§4) All TR-FRET and hWB cytokine assays have been described previously.[54]"}, "BRDT BD2": {"biological_target": "BRDT BD2 (Homo sapiens, UniProt Q58F21)", "assay": "BRDT BD2 TR-FRET assay", "format": "binding", "method": "as §1, §4"}, "[6]": {"assay": "Artificial membrane permeability assay", "conditions": "PAMPA", "method": "as §1, §3"}, "5-HT2A [7]": {"biological_target": "T14, 5-HT2A", "assay": "Cross screening: 5-HT2A antagonist", "format": "biochemical"}, "Alpha 1 nAChR": {"biological_target": "T23, Alpha 1 nAChR (Homo sapiens, UniProt P02708+P07510+Q07001)", "T23 construct": "purchased GSK enhanced cross-screening panel (in-house)", "T23 sequence (P02708 21-457)": "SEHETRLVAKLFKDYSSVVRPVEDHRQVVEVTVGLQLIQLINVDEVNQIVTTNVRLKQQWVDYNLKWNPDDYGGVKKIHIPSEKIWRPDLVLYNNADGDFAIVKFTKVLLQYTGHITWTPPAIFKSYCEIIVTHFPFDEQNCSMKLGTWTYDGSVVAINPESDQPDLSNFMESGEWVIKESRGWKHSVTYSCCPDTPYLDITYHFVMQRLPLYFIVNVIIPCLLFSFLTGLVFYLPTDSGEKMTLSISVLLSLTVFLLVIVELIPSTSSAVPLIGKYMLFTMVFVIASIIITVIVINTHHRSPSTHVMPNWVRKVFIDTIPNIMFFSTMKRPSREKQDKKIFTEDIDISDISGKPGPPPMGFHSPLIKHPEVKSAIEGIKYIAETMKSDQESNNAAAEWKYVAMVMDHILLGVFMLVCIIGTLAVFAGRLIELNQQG", "T23 sequence (P11230 24-501 partner)": "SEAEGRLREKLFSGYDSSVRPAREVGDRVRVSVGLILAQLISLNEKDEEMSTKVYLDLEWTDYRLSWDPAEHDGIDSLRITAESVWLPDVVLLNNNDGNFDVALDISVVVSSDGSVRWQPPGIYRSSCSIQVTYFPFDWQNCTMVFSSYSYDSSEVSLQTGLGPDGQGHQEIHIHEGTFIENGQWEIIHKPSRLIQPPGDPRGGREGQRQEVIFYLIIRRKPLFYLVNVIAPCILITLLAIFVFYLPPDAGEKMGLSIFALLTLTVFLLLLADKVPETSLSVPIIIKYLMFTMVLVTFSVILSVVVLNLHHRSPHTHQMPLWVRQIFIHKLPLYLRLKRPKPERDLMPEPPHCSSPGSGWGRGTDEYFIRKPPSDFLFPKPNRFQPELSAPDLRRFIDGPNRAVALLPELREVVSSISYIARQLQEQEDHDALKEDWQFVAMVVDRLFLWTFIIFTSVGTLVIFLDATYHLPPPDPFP", "T23 sequence (Q07001 22-517)": "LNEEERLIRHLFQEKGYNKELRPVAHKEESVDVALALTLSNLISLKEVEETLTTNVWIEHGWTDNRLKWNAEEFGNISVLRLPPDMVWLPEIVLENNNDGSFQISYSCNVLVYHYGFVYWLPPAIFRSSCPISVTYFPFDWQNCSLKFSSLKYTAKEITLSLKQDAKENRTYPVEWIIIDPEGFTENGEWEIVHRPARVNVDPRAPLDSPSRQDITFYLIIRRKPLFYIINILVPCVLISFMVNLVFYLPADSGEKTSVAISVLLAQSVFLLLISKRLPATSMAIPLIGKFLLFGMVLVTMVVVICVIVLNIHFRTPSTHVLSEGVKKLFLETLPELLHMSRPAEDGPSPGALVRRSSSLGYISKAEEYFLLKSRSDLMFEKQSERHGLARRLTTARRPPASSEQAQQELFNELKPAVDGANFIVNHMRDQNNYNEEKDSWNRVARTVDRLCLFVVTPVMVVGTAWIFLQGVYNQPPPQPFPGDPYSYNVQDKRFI", "T23 sequence (P07510 23-517)": "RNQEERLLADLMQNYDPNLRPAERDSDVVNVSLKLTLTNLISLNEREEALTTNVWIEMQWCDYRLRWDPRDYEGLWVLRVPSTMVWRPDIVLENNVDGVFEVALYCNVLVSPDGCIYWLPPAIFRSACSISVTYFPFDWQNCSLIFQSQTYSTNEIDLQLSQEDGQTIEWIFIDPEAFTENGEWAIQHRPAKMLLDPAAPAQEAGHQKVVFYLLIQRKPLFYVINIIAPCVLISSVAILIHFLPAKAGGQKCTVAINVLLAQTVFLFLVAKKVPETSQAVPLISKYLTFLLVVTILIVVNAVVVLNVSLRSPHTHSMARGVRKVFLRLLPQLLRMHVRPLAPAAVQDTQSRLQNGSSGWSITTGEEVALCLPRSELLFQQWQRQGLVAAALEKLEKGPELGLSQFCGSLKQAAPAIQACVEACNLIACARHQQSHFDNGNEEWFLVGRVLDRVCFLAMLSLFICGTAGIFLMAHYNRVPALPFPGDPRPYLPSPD", "assay": "Cross screening: Alpha 1 nAChR Agonist", "format": "biochemical"}, "5-HT3": {"biological_target": "T24, 5-HT3 (Homo sapiens, UniProt P46098)", "T24 construct": "purchased GSK enhanced cross-screening panel (in-house)", "assay": "Cross screening: 5-HT3 antagonist", "format": "biochemical"}}, "data": [{"smiles": "Cc1cc(-c2nc3ccccc3n2C[C@@H]2CCCN(C(=O)C3CCN(C(C)C)CC3)C2)cn(C)c1=O", "note": "[Compound 31, (S)-5-(1-((1-(1-Isopropylpiperidine-4-carbonyl)piperidin-3-yl)methyl)-1H-benzo [d]imidazole-2-yl)-1,3-dimethylpyridin-2(1H)-one]", "values": [{"measurement": "Kd", "setting": "ATAD2A", "result": "> 31.6", "unit": "µM"}, {"measurement": "pXC50 K1 Agonist", "setting": "K1", "result": "< 4.0"}, {"measurement": "selectivity over all non-BET bromodomains and broader liability targets tested", "setting": "non-BET bromodomains", "result": "≥ 1200", "unit": "fold"}, {"measurement": "BROMOscan pKd 20 non-BET bromodomains", "setting": "non-BET bromodomains; 20 non-BET bromodomains other than EP300", "result": "≤4.8"}, {"measurement": "fold selectivity over 20 non-BET bromodomains", "setting": "non-BET bromodomains; BROMOscan", "result": "≥2000", "unit": "fold"}, {"measurement": "Kd", "setting": "BRPF1", "result": 15.8, "unit": "µM"}, {"measurement": "pXC50 OPRK1 Agonist", "setting": "OPRK1", "result": "< 4.0"}, {"measurement": "pXC50 PI3K-gamma inhibitor", "setting": "PI3K-gamma", "result": "< 4.5"}, {"measurement": "pXC50 5-HT1B Agonist", "setting": "5-HT1B", "result": "< 4.0"}, {"measurement": "BROMOscan pKd BRD2 BD1", "setting": "BRD2 BD1", "result": 8.5}, {"measurement": "fold selectivity BRD2 BD1 over BD2", "setting": "BRD2 BD1; BROMOscan", "result": 1000, "unit": "fold"}, {"measurement": "pXC50 Adenosine A2a Human Agonist", "setting": "Adenosine A2a", "result": "< 4.0"}, {"measurement": "pXC50 Dopamine 2 (D2) Antagonist", "setting": "Dopamine 2 (D2)", "result": "< 4.0"}, {"measurement": "BioMAP immune-modulatory biomarker levels", "setting": "[1]; 10 μM to 160 nM, MCP-1, IL-8, IL-1, IL-10, M-CSF, IL-6", "result": "decreases"}, {"measurement": "BioMAP antiproliferative effects", "setting": "[1]; 10 μM to 160 nM, human primary T cells, coronary artery smooth muscle cells, endothelial cells, fibroblasts", "result": "antiproliferative effects"}, {"measurement": "BioMAP cytotoxicity", "setting": "[1]; 10 μM, […], 630 nM, 160 nM", "result": "No cytotoxicity was observed"}, {"measurement": "solubility", "setting": "CAD aqueous solubility", "result": "≥ 257", "unit": "µg/mL"}, {"measurement": "pXC50 GR Agonist", "setting": "GR", "result": "< 4.0"}, {"measurement": "pXC50 MRGPRX2 Agonist", "setting": "MRGPRX2", "result": "< 4.0"}, {"measurement": "BROMOscan pKd BRD4 BD2", "setting": "BRD4 BD2", "result": 5.6}, {"measurement": "pXC50 Alpha 1B antagonist", "setting": "Alpha 1B", "result": "< 4.6"}, {"measurement": "pXC50 V1a antagonist", "setting": "V1a", "result": "< 4.3"}, {"measurement": "pXC50 hERG blocker", "setting": "hERG", "result": "< 4.3"}, {"measurement": "pXC50 5-HT2B Agonist", "setting": "5-HT2B", "result": "< 4.0"}, {"measurement": "pXC50 PXR Human Agonist", "setting": "PXR", "result": "< 4.3"}, {"measurement": "pXC50 5-HT2A Agonist", "setting": "5-HT2A [2]", "result": "< 4.0"}, {"measurement": "Kd", "setting": "PBRM1 BD2", "result": "> 31.6", "unit": "µM"}, {"measurement": "Kd", "setting": "CECR2", "result": "> 31.6", "unit": "µM"}, {"measurement": "BROMOscan pKd BRD3 BD1", "setting": "BRD3 BD1 [3]", "result": 8.4}, {"measurement": "fold selectivity BRD3 BD1 over BD2", "setting": "BRD3 BD1 [3]; BROMOscan", "result": 400, "unit": "fold"}, {"measurement": "pXC50 M2 (CHRM2) antagonist", "setting": "M2 (CHRM2)", "result": "< 4.3"}, {"measurement": "pXC50 Beta2 Adrenoceptor Antagonist", "setting": "Beta2 Adrenoceptor", "result": "< 4.0"}, {"measurement": "Kd", "setting": "FALZ", "result": "> 31.6", "unit": "µM"}, {"measurement": "pXC50 Aryl Hydrocarbon Receptor", "setting": "[4]", "result": "< 4.0"}, {"measurement": "Kd", "setting": "BRD8 BD1", "result": "> 31.6", "unit": "µM"}, {"measurement": "BRD3 BD1 TR-FRET pIC50", "setting": "BRD3 BD1 [5]", "result": 7.7}, {"measurement": "fold selectivity BRD3 BD1 over BD2", "setting": "BRD3 BD1 [5]; TR-FRET", "result": 400, "unit": "fold"}, {"measurement": "BRDT BD2 TR-FRET pIC50", "setting": "BRDT BD2", "result": 4.5}, {"measurement": "Papp", "setting": "[6]", "result": "< 0.3", "unit": "×10⁻⁶ cm/s"}, {"measurement": "pXC50 5-HT2A antagonist", "setting": "5-HT2A [7]", "result": "< 4.0"}, {"measurement": "pXC50 Alpha 1 nAChR Agonist", "setting": "Alpha 1 nAChR", "result": "< 4.2"}, {"measurement": "pXC50 5-HT3 antagonist", "setting": "5-HT3", "result": "< 4.3"}]}]}
